{"source": "paper PMC11525196", "about": "(Nature, 2024)", "assay_in_all_cases": "SPR steady-state affinity", "type_in_all_cases": "binding", "key": {"LYCHOS (GPR155) [1]": {"molecular_target": "T1, LYCHOS (GPR155) (Homo sapiens, UniProt Q7Z3F1, A148W)", "T1 sequence (Q7Z3F1 1-870 A148W)": "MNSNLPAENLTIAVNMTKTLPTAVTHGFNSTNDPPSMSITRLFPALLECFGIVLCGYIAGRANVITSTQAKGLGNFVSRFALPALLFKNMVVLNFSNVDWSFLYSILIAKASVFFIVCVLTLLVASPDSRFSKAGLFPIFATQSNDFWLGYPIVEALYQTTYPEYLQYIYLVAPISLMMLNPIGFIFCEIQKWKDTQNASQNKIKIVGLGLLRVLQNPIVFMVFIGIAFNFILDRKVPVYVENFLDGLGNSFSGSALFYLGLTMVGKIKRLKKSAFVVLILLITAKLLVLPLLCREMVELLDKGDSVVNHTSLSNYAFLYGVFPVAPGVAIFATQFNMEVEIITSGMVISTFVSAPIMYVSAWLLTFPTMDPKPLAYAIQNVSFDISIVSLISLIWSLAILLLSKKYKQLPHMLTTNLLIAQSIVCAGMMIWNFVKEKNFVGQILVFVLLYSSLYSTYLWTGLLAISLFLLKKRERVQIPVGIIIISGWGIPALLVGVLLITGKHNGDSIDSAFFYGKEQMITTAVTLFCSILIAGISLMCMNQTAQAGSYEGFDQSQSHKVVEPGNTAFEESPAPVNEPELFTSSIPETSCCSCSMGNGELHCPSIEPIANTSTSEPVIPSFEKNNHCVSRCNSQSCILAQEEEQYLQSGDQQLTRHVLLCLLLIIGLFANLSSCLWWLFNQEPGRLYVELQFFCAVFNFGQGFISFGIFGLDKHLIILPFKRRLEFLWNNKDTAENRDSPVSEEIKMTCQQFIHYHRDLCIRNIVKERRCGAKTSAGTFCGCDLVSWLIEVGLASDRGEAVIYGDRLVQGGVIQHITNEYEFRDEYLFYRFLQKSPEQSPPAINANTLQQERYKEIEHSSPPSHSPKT"}, "LYCHOS (GPR155) [2]": {"molecular_target": "T2, LYCHOS (GPR155) (Homo sapiens, UniProt Q7Z3F1, L177W)", "T2 sequence (Q7Z3F1 1-870 L177W)": "T1 sequence (Q7Z3F1 1-870 A148W) with W148A, L177W"}, "LYCHOS (GPR155) [3]": {"molecular_target": "T3, LYCHOS (GPR155) (Homo sapiens, UniProt Q7Z3F1)", "T3 sequence (Q7Z3F1 1-870)": "T1 sequence (Q7Z3F1 1-870 A148W) with W148A"}, "LYCHOS (GPR155) [4]": {"molecular_target": "T4, LYCHOS (GPR155) (Homo sapiens, UniProt Q7Z3F1, N145A)", "T4 sequence (Q7Z3F1 1-870 N145A)": "T1 sequence (Q7Z3F1 1-870 A148W) with N145A, W148A"}}, "note": "Changes are numbered by the printed parent chain."}
{"smiles": "O=C(O)Cc1c[nH]c2ccccc12", "note": "[IAA, Indole-3-acetic acid]", "values": [{"measurement": "Kd", "setting": "LYCHOS (GPR155) [1]", "value": 3.38, "unit": "mM"}, {"measurement": "Kd", "setting": "LYCHOS (GPR155) [2]", "value": 3.93, "unit": "mM"}, {"measurement": "Kd", "setting": "LYCHOS (GPR155) [3]", "value": 1.62, "unit": "mM"}, {"measurement": "Kd", "setting": "LYCHOS (GPR155) [4]", "value": 5.49, "unit": "mM"}]}
